Consider 20 compounds from ChEMBL document CHEMBL3351224 (ACS Med Chem Lett, 2014).

Structures are written as SMILES.

Data set [1] addresses T1, Cysteinyl leukotriene receptor 1 (Homo sapiens, UniProt Q9Y271).
T1 sequence (Q9Y271 whole entry): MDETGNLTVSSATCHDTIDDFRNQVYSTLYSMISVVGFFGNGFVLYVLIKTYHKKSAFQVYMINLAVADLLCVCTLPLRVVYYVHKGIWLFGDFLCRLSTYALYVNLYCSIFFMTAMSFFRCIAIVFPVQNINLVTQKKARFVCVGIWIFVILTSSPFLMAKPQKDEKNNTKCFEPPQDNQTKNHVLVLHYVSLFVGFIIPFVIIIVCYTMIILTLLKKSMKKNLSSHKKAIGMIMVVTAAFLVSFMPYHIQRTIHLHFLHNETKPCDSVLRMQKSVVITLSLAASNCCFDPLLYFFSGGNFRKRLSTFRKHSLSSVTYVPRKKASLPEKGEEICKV
Kind of data set: Antagonist activity at human CysLT1 receptor expressed in CHO cells assessed as inhibition of LTD4-inudced intracellular calcium influx preincubated for 30 mins before LTD4 addition by Fura2-AM assay. In kind it is functional, cell-based. Background: Calcium flux is commonly read through the fluorescence of an indicator in the cells.

Data set [2] concerns the target T2, Cysteinyl leukotriene receptor 2 (Homo sapiens, UniProt Q9NS75).
T2 sequence (Q9NS75 whole entry): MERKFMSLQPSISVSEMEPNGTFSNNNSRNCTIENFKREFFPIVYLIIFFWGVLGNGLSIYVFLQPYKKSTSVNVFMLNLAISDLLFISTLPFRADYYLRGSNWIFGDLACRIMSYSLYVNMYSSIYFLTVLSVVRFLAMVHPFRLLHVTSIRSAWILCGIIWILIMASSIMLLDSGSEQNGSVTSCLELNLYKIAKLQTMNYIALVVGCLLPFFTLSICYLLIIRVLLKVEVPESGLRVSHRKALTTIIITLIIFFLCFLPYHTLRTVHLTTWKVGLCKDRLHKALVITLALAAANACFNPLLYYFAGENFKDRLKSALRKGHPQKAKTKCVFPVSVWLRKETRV
Kind of data set: Antagonist activity at human CysLT2 receptor expressed in HEK293 cells assessed as inhibition of LTD4-inudced intracellular calcium influx preincubated for 30 mins before LTD4 addition by Fura2-AM assay. It counts as functional, cell-based.

A short description of data set [3]: AUC in rat at 30 mg/kg, po. The note with it: plasma. It counts as ADME, organism-based. The arrangement: dose 30 mg/kg, route oral.
Data set [4] can be described thus: Oral bioavailability in rat at 30 mg/kg. It counts as ADME, organism-based. The note with it: in vivo.
The nature of data set [5]: Clearance in rat at 1 mg/kg, iv. In kind it is ADME, organism-based. The conditions noted are these: in vivo. Details: dose 1 mg/kg, route intravenous.
Data set [6] in a line: Half life in rat at 1 mg/kg, iv. In kind it is ADME, organism-based. The arrangement: dose 1 mg/kg, route intravenous. The conditions noted are these: in vivo.
The target in data set [7] is T3, Cysteinyl leukotriene receptor 2 (Homo sapiens) (UniProt Q9NS75).
T3 sequence (whole entry): T2 sequence (Q9NS75 whole entry)
Kind of data set: Antagonist activity at human CysLT2 receptor expressed in HEK293 cells assessed as inhibition of LTD4-inudced intracellular calcium influx preincubated at 10 uM for 30 mins before LTD4 addition by Fura2-AM assay. In kind it is functional, cell-based.

By IC50 is commonly meant the concentration that inhibits the measured activity by half. As usually defined, the AUC is concentration integrated over time. Higher therefore signals high exposure. As usually defined, the bioavailability is dose-corrected exposure relative to a reference, in per cent. Low values mean poor availability, high ones good availability. One may read the clearance as the rate of elimination divided by the concentration. A high value points to efficient removal. The term half-life denotes the time needed for the level to fall by half in the phase considered. Low values mean fast loss, high ones slow loss. In general, inhibition refers to the share of the control response that was lost under treatment.

Turning to `O=C(O)CCCC(=O)N1CC(C(=O)O)Oc2c(NC(=O)c3ccc(OCCCCc4ccccc4)cc3)cccc21` (configuration not stated), the IC50 in data set [1] is less than 1 nM; in data set [2], 1800 nM.

With `O=C(O)CCCCCN1CC(C(=O)O)Oc2c(NC(=O)c3ccc(OCCCCc4ccccc4)cc3)cccc21` (configuration not stated), the IC50 worked out at 130 nM in data set [1] and 290 nM in data set [2].

For the compound `O=C(Nc1cccc2c1OC(C(=O)O)CN2)c1ccc(OCCCCc2ccccc2)cc1` (configuration not stated), the results for the IC50 in data set [1] and in data set [2] were 54 nM and 4600 nM, respectively.

Consider `O=C(O)CCCCN1CC(C(=O)O)Oc2c(NC(=O)c3ccc(OCCCCc4ccccc4)cc3)cccc21` (configuration not stated), for which the values for the IC50 in data set [1] and in data set [2] were 44 nM and 170 nM, respectively.

As for `CCCCC/C=C\C\C=C/C=C/C=C/[C@@H](Sc1ccc(C(=O)O)cc1)[C@@H](O)CCCC(=O)O`, the IC50 amounted to 440 nM in data set [1] and 300 nM in data set [2].

Compound `O=C(O)CCCN1CC(C(=O)O)Oc2c(NC(=O)c3ccc(OCCCCc4ccccc4)cc3)cccc21` (configuration not stated) had an area under the curve (AUC) in data set [3] of 1600 ng·h/mL. In addition, the bioavailability in data set [4] was 1.5%. For the same compound, the clearance in data set [5] turned out to be 4.7 mL/min/kg. In data set [6], this compound had a half-life of 3.4 h.

In the case of `O=C(O)CCCCC(=O)N1CC(C(=O)O)Oc2c(NC(=O)c3ccc(OCCCCc4ccccc4)cc3)cccc21` (configuration not stated), the IC50 in data set [1] turned out to be 12 nM; in data set [2], 890 nM.

Consider `O=C(O)CCC(=O)N1CC(C(=O)O)Oc2c(NC(=O)c3ccc(OCCCCc4ccccc4)cc3)cccc21` (configuration not stated), for which the IC50 in data set [1] amounted to 1.4 nM; in data set [2], 890 nM.

Take `CCN(CC)C(=O)/C=C(\C)c1ccc2oc(C(=O)c3ccc(C#N)cc3)c(NC(=O)/C(C#N)=C(/C)O)c2c1`: the values for the IC50 in data set [1] and in data set [2] were 9700 nM and 7700 nM, respectively.

As to `O=C(O)CCCN1CC(C(=O)O)Oc2c(NC(=O)c3ccc(OCCCc4ccccc4)cc3)cccc21` (configuration not stated), the IC50 was 1300 nM in data set [1] and 68 nM in data set [2].

With `O=C(O)CCCN1CC(C(=O)O)Oc2c(NC(=O)c3ccc(OCCCCOc4ccccc4)cc3)cccc21` (configuration not stated), the 50% inhibitory concentration (IC50) in data set [1] is 32 nM; in data set [2] it was 17 nM.

For the compound `O=C(O)c1ccc(OCCCc2ccc(OCCCCOc3ccccc3)cc2)c(C(=O)NC2CCCC(C(=O)O)C2)c1` (configuration not stated), the IC50 in data set [1] was more than 2500 nM; in data set [2], 53 nM.

Regarding `CCCC(=O)N1CC(C(=O)O)Oc2c(NC(=O)c3ccc(OCCCCc4ccccc4)cc3)cccc21` (configuration not stated), the IC50 worked out at 300 nM in data set [1] and 3700 nM in data set [2].

On to `O=C(O)CCCN1CC(C(=O)O)Oc2c(NC(=O)c3ccc(OCCOc4ccccc4)cc3)cccc21` (configuration not stated), for which the IC50 in data set [1] amounted to 3000 nM; in data set [2], 1500 nM.

Turning to `CC(=O)N1CC(C(=O)O)Oc2c(NC(=O)c3ccc(OCCCCc4ccccc4)cc3)cccc21` (configuration not stated), the IC50 in data set [1] stood at 13 nM; in data set [2], 3600 nM.

With `CCC(=O)N1CC(C(=O)O)Oc2c(NC(=O)c3ccc(OCCCCc4ccccc4)cc3)cccc21` (configuration not stated), the IC50 in data set [1] worked out at 150 nM; in data set [2], 5200 nM.

With `O=C(Nc1ccc2c(c1)OC(C(=O)O)CN2)c1ccc(OCCCCc2ccccc2)cc1` (configuration not stated), in data set [1], the IC50 came out at 4600 nM. Moreover, in data set [7], the inhibition was 36%.

For `O=C(O)CCCN1CC(C(=O)O)Oc2c(NC(=O)c3ccc(OCCCCCc4ccccc4)cc3)cccc21` (configuration not stated), the results for the half-inhibitory concentration (IC50) in data set [1] and in data set [2] were 120 nM and 0.62 nM, respectively.

With `O=C(O)CCCN1CC(C(=O)O)Oc2c(NC(=O)c3ccc(OCCCOc4ccccc4)cc3)cccc21` (configuration not stated), the IC50 in data set [1] is 290 nM; in data set [2], 16 nM.

On to `O=C(Nc1ccc2c(c1)NCC(C(=O)O)O2)c1ccc(OCCCCc2ccccc2)cc1` (configuration not stated), for which the IC50 in data set [1] was found to be 840 nM. Moreover, the inhibition in data set [7] was 25%.
